From patent publication US9717703B2, “Emulsion and emulsion preconcentrate compositions comprising omega-3 fatty acids and uses thereof are disclosed” (GLAXOSMITHKLINE LLC, priority 2009, dated 2017) come the findings set out here.

A short description of this data set: Clinical study Part B, two-week repeat dose plasma EPA/DHA pharmacokinetics. The settings on record: human, in vivo. The text has this: Part A comprised single dose administration of emulsion pre-concentrate capsules or liquid emulsion equivalent to 1.68 g LOVAZA®. Part B comprised two-week, repeat dosing of selected doses of the emulsion pre-concentrate capsules. […] Part B was a single blind, randomized, parallel group, placebo controlled study consisting of a 2-week repeat dose period with 3 dose levels of the K85EE emulsion pre-concentrate capsules, and one dose of LOVAZA®. Within each cohort, at least eight healthy subjects were randomized to an active treatment group, and at least 2 subjects were randomized to a matching placebo (1000 mg capsule containing corn oil, NF 994 mg and D-Alpha Tocopherol, USP 6 mg). Data from placebo subjects was pooled for analysis. Subjects, checked into the clinical research unit, participated in a test meal on Day -2 and had 24-hr baseline EPA/DHA profiles on Day -1 and Day 1. Subjects were released from the clinic on Day 2, and returned for daily dosing on Days 3 through 12 (with a brief outpatient visit on Day 6). Subjects checked into the clinic again on the evening of Day 12, and on Day 13 they had 24-hr EPA/DHA profiles collected. Subjects were released from the clinic on Day 14, following procedures including a test meal and triglyceride sampling. In Part B, subjects were assigned to either a) one of 3 dose levels of the K85EE emulsion pre-concentrate capsules, b) LOVAZA®, or c) to placebo to match one of the 4 active treatments. Subjects were blinded as to whether they were receiving an active treatment or the corresponding placebo. The randomization ratio for active:placebo within each cohort was 4:1. Part B treatments are summarized below: The K85EE emulsion pre-concentrate capsules and LOVAZA® were administered as capsules, once daily in the manner described for Part A, and the placebos were administered as for the corresponding active treatment. Subjects were required to fast only on PK sampling days. Plasma EPA and DHA concentrations were determined according to the above method.

Take omega-3-acid ethyl esters [LOVAZA]: the “Free DHA AUC (0-24 h) Geometric LS Mean, Ref. (Day 1)” value was 5.61 µg·h/mL; the “Free DHA AUC (0-24 h) Geometric LS Mean, Test (Day 13)” value is 9.40 µg·h/mL; the “Free DHA Cmax Geometric LS Mean, Ref. (Day 1)” value stood at 430 ng/mL; the “Free DHA Cmax Geometric LS Mean, Test (Day 13)” value was 790 ng/mL. For the same substance, the “Free EPA AUC (0-24 h) Geometric LS Mean, Ref. (Day 1)” value came out at 1.66 µg·h/mL; the “Free EPA AUC (0-24 h) Geometric LS Mean, Test (Day 13)” value is 3.22 µg·h/mL; the “Free EPA Cmax Geometric LS Mean, Ref. (Day 1)” value turned out to be 90 ng/mL; the “Free EPA Cmax Geometric LS Mean, Test (Day 13)” value came out at 200 ng/mL. The “Total DHA AUC (0-24 h) Geometric LS Mean, Ref. (Day 1)” value was 810.21 µg·h/mL; the “Total DHA AUC (0-24 h) Geometric LS Mean, Test (Day 13)” value came out at 1356.51 µg·h/mL; the “Total DHA Cmax Geometric LS Mean, Ref. (Day 1)” value was 38290 ng/mL; the “Total DHA Cmax Geometric LS Mean, Test (Day 13)” value turned out to be 65370 ng/mL. Moreover, the “Total EPA AUC (0-24 h) Geometric LS Mean, Ref. (Day 1)” value was determined as 251.67 µg·h/mL; the “Total EPA AUC (0-24 h) Geometric LS Mean, Test (Day 13)” value is 611.34 µg·h/mL; the “Total EPA Cmax Geometric LS Mean, Ref. (Day 1)” value turned out to be 12860 ng/mL; the “Total EPA Cmax Geometric LS Mean, Test (Day 13)” value worked out at 30840 ng/mL.
